Key:
crabgrass, large = assay: Test C postemergence; type: in vivo, Digitaria sanguinalis
Procedure, shortened: (§1)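 Visual control ratings on a 0–100 scale (100 = complete control) made against untreated controls after 13 to 15 days in greenhouse. Compounds applied in surfactant-containing solvent mixture, either preemergence to loam/sand-sown seeds or postemergence to 1- to 4-leaf plants (2–18 cm) in peat medium.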

kochia = assay: Test C postemergence; type: in vivo, Kochia scoparia
Procedure, shortened: as §1

barnyardgrass = assay: Test C postemergence; type: in vivo, Echinochloa crus-galli
Procedure, shortened: as §1

wheat = assay: Test C postemergence; type: in vivo, Triticum aestivum
Procedure, shortened: as §1

blackgrass = assay: Test C postemergence; type: in vivo, Alopecurus myosuroides
Procedure, shortened: as §1

pigweed = assay: Test C postemergence; type: in vivo, Amaranthus retroflexus
Procedure, shortened: as §1

velvetleaf = assay: Test C postemergence; type: in vivo, Abutilon theophrasti
Procedure, shortened: as §1

morningglory = assay: Test C postemergence; type: in vivo, Ipomoea coccinea
Procedure, shortened: as §1

chickweed = assay: Test C postemergence; type: in vivo, Stellaria media
Procedure, shortened: as §1

lambsquarters [1] = assay: Test C preemergence; type: in vivo, Chenopodium album
Procedure, shortened: as §1

galium = assay: Test C postemergence; type: in vivo, Galium aparine
Procedure, shortened: as §1

waterhemp = assay: Test C postemergence; type: in vivo, Amaranthus rudis
Procedure, shortened: as §1

oat, wild = assay: Test C postemergence; type: in vivo, Avena fatua
Procedure, shortened: as §1

lambsquarters [2] = assay: Test C postemergence; type: in vivo, Chenopodium album
Procedure, shortened: as §1

[3] = Postemergence, 31 g ai/ha, visually evaluated after 13 to 15 days
[4] = postemergence, 62 g ai/ha, scale 0 to 100
[5] = postemergence, 250 g ai/ha, scale 0 to 100 (0 no effect, 100 complete control)
[6] = postemergence, 125 g ai/ha, scale 0 to 100, 0 no effect, 100 complete control

CCCc1cc(C(=O)NCC)nn1Cc1ccnc(C(F)(F)F)c1 [Compound 95]
Plant response rating (scale of 0 to 100 where 0 is no effect and 100 is complete control), Crabgrass, Large (crabgrass, large; [3]): 5 | Crabgrass, Large plant response rating (crabgrass, large; [4]): 10 | Plant response rating, Crabgrass, Large (crabgrass, large; [5]): 45 | Plant response rating, Crabgrass, Large (crabgrass, large; [6]): 40 | Plant response rating (scale of 0 to 100 where 0 is no effect and 100 is complete control), Kochia (kochia; [3]): 50 | Kochia plant response rating (kochia; [4]): 70 | Plant response rating, Kochia (kochia; [5]): 85 | Plant response rating, Kochia (kochia; [6]): 85 | Plant response rating (scale of 0 to 100 where 0 is no effect and 100 is complete control), Barnyardgrass (barnyardgrass; [3]): 0 | Barnyardgrass plant response rating (barnyardgrass; [4]): 0 | Plant response rating, Barnyardgrass (barnyardgrass; [5]): 30 | Plant response rating, Barnyardgrass (barnyardgrass; [6]): 0 | Plant response rating (scale of 0 to 100 where 0 is no effect and 100 is complete control), Wheat (wheat; [3]): 5 | Wheat plant response rating (wheat; [4]): 5 | Plant response rating, Wheat (wheat; [5]): 20 | Plant response rating, Wheat (wheat; [6]): 10 | Plant response rating (scale of 0 to 100 where 0 is no effect and 100 is complete control), Blackgrass (blackgrass; [3]): 5 | Blackgrass plant response rating (blackgrass; [4]): 5 | Plant response rating, Blackgrass (blackgrass; [5]): 35 | Plant response rating, Blackgrass (blackgrass; [6]): 15 | Plant response rating (scale of 0 to 100 where 0 is no effect and 100 is complete control), Pigweed (pigweed; [3]): 10 | Pigweed plant response rating (pigweed; [4]): 40 | Plant response rating, Pigweed (pigweed; [5]): 70 | Plant response rating, Pigweed (pigweed; [6]): 40 | Plant response rating (scale of 0 to 100 where 0 is no effect and 100 is complete control), Velvetleaf (velvetleaf; [3]): 10 | Velvetleaf plant response rating (velvetleaf; [4]): 15 | Plant response rating, Velvetleaf (velvetleaf; [5]): 40 | Plant response rating, Velvetleaf (velvetleaf; [6]): 35 | Plant response rating (scale of 0 to 100 where 0 is no effect and 100 is complete control), Morningglory (morningglory; [3]): 50 | Morningglory plant response rating (morningglory; [4]): 50 | Plant response rating, Morningglory (morningglory; [5]): 70 | Plant response rating, Morningglory (morningglory; [6]): 50 | Plant response rating (scale of 0 to 100 where 0 is no effect and 100 is complete control), Chickweed (chickweed; [3]): 85 | Chickweed plant response rating (chickweed; [4]): 100 | Plant response rating, Chickweed (chickweed; [5]): 100 | Plant response rating, Chickweed (chickweed; [6]): 100 | Plant response rating (scale of 0 to 100), Lambsquarters (lambsquarters [1]; Preemergence, 250 g ai/ha): 100 | Lambsquarters plant response rating (lambsquarters [1]; preemergence, 31 g ai/ha, visual rating, scale 0 to 100 (0 no effect, 100 complete control), 13 to 15 days): 100 | Plant response rating, Lambsquarters (lambsquarters [1]; preemergence, 62 g ai/ha, 13 to 15 days, scale 0 to 100, 0 = no effect, 100 = complete control): 100 | Lambsquarters plant response rating (lambsquarters [1]; preemergence, 125 g ai/ha, scale 0 to 100, 0 is no effect, 100 is complete control): 100 | Plant response rating (scale of 0 to 100 where 0 is no effect and 100 is complete control), Galium (galium; [3]): 60 | Galium plant response rating (galium; [4]): 80 | Plant response rating, Galium (galium; [5]): 90 | Plant response rating, Galium (galium; [6]): 90 | Plant response rating (scale of 0 to 100 where 0 is no effect and 100 is complete control), Waterhemp (waterhemp; [3]): 30 | Waterhemp plant response rating (waterhemp; [4]): 30 | Plant response rating, Waterhemp (waterhemp; [5]): 30 | Plant response rating, Waterhemp (waterhemp; [6]): 30 | Plant response rating (scale of 0 to 100 where 0 is no effect and 100 is complete control), Oat, Wild (oat, wild; [3]): 5 | Oat, Wild plant response rating (oat, wild; [4]): 5 | Plant response rating, Oat, Wild (oat, wild; [5]): 50 | Plant response rating, Oat, Wild (oat, wild; [6]): 15 | Plant response rating (scale of 0 to 100 where 0 is no effect and 100 is complete control), Lambsquarters (lambsquarters [2]; [3]): 40 | Lambsquarters plant response rating (lambsquarters [2]; [4]): 80 | Plant response rating, Lambsquarters (lambsquarters [2]; [5]): 98 | Plant response rating, Lambsquarters (lambsquarters [2]; [6]): 90

Source: US20150105252A1, “SUBSTITUTED PYRAZOLES AS HERBICIDES” (E I DU PONT DE NEMOURS AND COMPANY, priority 2013, published 2015)
